Patent US4393225A, “AI-77 Compounds and pharmaceutically acceptable salts thereof” (Asahi Kasei Kogyo Kabushiki Kaisha, priority 1979, dated 1983)

System: ulcer
Assay: Anti-ulcer test (restraint and water immersion ulcer in rats, i.p.)
Type: in vivo, Male Wistar rats
Conditions: Rattus norvegicus, ip, read-out: % Inhibition of Ulcer
Description: The anti-ulcer and anti-edema activity of the compounds was evaluated in efficacy tests described below.
Male Wistar rats weighing about 150 g on average were not fed for 24 hours before the test. Then a solution or suspension of a predetermined concentration of the test compound in physiological saline was administered to them intraperitoneally. One hour after the administration,each rat was restrained in a net cage and submerged in a water both (21° C.) from the tail to xiphistrenun for 6 hours. Test animals were then killed (by dislocation of the cervical vertebrae), the stomach was removed and incised along the curvatura ventriculi major, and the inside wall of the stomach was pathologically examined under microscopic observation. Rats in which the occurrence of an ulceration was substantially not observed were rated O, while others were rated 0.5, 1, 2 or 3, depending on the severity of the ulcer development. The percent inhibition of ulcer was calculated by the following formula: [formula]

Structure (SMILES) | inhibition in vivo at 50 mg/kg [%]
CC(C)CC(=O)NC1CC(=O)OC1C(O)C(=O)NC(CC(C)C)C1Cc2cccc(O)c2C(=O)O1 (centres unmarked) [IIIa-1-5] | 66
CCCCC(=O)NC1CC(=O)OC1C(O)C(=O)NC(CC(C)C)C1Cc2cccc(O)c2C(=O)O1 (centres unmarked) [IIIa-1-6] | 66
CC(C)CC(NC(=O)C(O)C1OC(=O)CC1NC(=O)C1CC1)C1Cc2cccc(O)c2C(=O)O1 (centres unmarked) [IIIa-1-18] | 66
CC(C)CC(NC(=O)C(O)C1OC(=O)CC1NC(=O)C1CC2C=CC1C2)C1Cc2cccc(O)c2C(=O)O1 (centres unmarked) [IIIa-1-71] | 66

Same assay, conditions: Rattus norvegicus, ip; 50 mg/kg i.p.; read-out: % Inhibition of Ulcer

Structure (SMILES) | inhibition in vivo at 50 mg/kg [%]
CCCC(=O)NC1CC(=O)OC1C(O)C(=O)NC(CC(C)C)C1Cc2cccc(O)c2C(=O)O1 (centres unmarked) [IIIa-1-3] | 66
CC(C)CC(NC(=O)C(O)C1OC(=O)CC1NC(=O)C(C)C)C1Cc2cccc(O)c2C(=O)O1 (centres unmarked) [IIIa-1-4] | 66
CCCCCC(=O)NC1CC(=O)OC1C(O)C(=O)NC(CC(C)C)C1Cc2cccc(O)c2C(=O)O1 (centres unmarked) [IIIa-1-7] | 66
CCCCCCC(=O)NC1CC(=O)OC1C(O)C(=O)NC(CC(C)C)C1Cc2cccc(O)c2C(=O)O1 (centres unmarked) [IIIa-1-8] | 66
CCCCCCCC(=O)NC1CC(=O)OC1C(O)C(=O)NC(CC(C)C)C1Cc2cccc(O)c2C(=O)O1 (centres unmarked) [IIIa-1-9] | 66
CCCCCCCCCCCC(=O)NC1CC(=O)OC1C(O)C(=O)NC(CC(C)C)C1Cc2cccc(O)c2C(=O)O1 (centres unmarked) [IIIa-1-10] | 66
CCCCCCCCCCCCCCCCCC(=O)NC1CC(=O)OC1C(O)C(=O)NC(CC(C)C)C1Cc2cccc(O)c2C(=O)O1 (centres unmarked) [IIIa-1-11] | 44
CC(C)CC(NC(=O)C(O)C1OC(=O)CC1NC(=O)C(Cl)(Cl)Cl)C1Cc2cccc(O)c2C(=O)O1 (centres unmarked) [IIIa-1-12] | 66
CCCCCCCC/C=C\CCCCCCCC(=O)NC1CC(=O)OC1C(O)C(=O)NC(CC(C)C)C1Cc2cccc(O)c2C(=O)O1 (centres unmarked) [IIIa-1-13] | 44
CC(C)CC(NC(=O)C(O)C1OC(=O)CC1NC(=O)c1ccccc1)C1Cc2cccc(O)c2C(=O)O1 (centres unmarked) [IIIa-1-14] | 56
CC(C)CC(NC(=O)C(O)C1OC(=O)CC1NC(=O)c1ccc2ccccc2c1)C1Cc2cccc(O)c2C(=O)O1 (centres unmarked) [IIIa-1-15] | 44
CC(C)CC(NC(=O)C(O)C1OC(=O)CC1NC(=O)C12CC3CC(CC(C3)C1)C2)C1Cc2cccc(O)c2C(=O)O1 (centres unmarked) [IIIa-1-16] | 56
CC(=O)n1cc(C(=O)NC2CC(=O)OC2C(O)C(=O)NC(CC(C)C)C2Cc3cccc(O)c3C(=O)O2)c2ccccc21 (centres unmarked) [IIIa-1-17] | 66
CC(C)CC(NC(=O)C(O)C1OC(=O)CC1NC(=O)CCCC1CCCCC1)C1Cc2cccc(O)c2C(=O)O1 (centres unmarked) [IIIa-1-19] | 66
CC(C)CC(NC(=O)C(O)C1OC(=O)CC1NC(=O)Cc1ccccc1)C1Cc2cccc(O)c2C(=O)O1 (centres unmarked) [IIIa-1-20] | 66
Cc1c(CC(=O)NC2CC(=O)OC2C(O)C(=O)NC(CC(C)C)C2Cc3cccc(O)c3C(=O)O2)ccc2ccccc12 (centres unmarked) [IIIa-1-21] | 56
CC(C)CC(NC(=O)C(O)C1OC(=O)CC1NC(=O)c1ccco1)C1Cc2cccc(O)c2C(=O)O1 (centres unmarked) [IIIa-1-22] | 66
CC(C)CC(NC(=O)C(O)C1OC(=O)CC1NC(=O)C1CCCO1)C1Cc2cccc(O)c2C(=O)O1 (centres unmarked) [IIIa-1-23] | 66
CC(C)CC(NC(=O)C(O)C1OC(=O)CC1NC(=O)CC1CCCCO1)C1Cc2cccc(O)c2C(=O)O1 (centres unmarked) [IIIa-1-24] | 66

Structure (SMILES) | inhibition in vivo at 50 mg/kg [%]
CC(C)CC(NC(=O)C(O)C1OC(=O)CC1NC(=O)c1cccs1)C1Cc2cccc(O)c2C(=O)O1 (centres unmarked) [IIIa-1-25] | 66
CC(C)CC(NC(=O)C(O)C1OC(=O)CC1NC(=O)CCCc1cccs1)C1Cc2cccc(O)c2C(=O)O1 (centres unmarked) [IIIa-1-26] | 66
CC(C)CC(NC(=O)C(O)C1OC(=O)CC1NC(=O)c1nnnn1C)C1Cc2cccc(O)c2C(=O)O1 (centres unmarked) [IIIa-1-27] | 66
CC(=O)n1cccc1C(=O)NC1CC(=O)OC1C(O)C(=O)NC(CC(C)C)C1Cc2cccc(O)c2C(=O)O1 (centres unmarked) [IIIa-1-28] | 66
CC(C)CC(NC(=O)C(O)C1OC(=O)CC1NC(=O)c1cccn1C)C1Cc2cccc(O)c2C(=O)O1 (centres unmarked) [IIIa-1-29] | 66
COc1ccc2ncc(C(=O)NC3CC(=O)OC3C(O)C(=O)NC(CC(C)C)C3Cc4cccc(O)c4C(=O)O3)cc2c1 (centres unmarked) [IIIa-1-30] | 56
CC(C)CC(NC(=O)C(O)C1OC(=O)CC1NC(=O)CCCBr)C1Cc2cccc(O)c2C(=O)O1 (centres unmarked) [IIIa-1-31] | 66
CCC(=O)C(=O)NC1CC(=O)OC1C(O)C(=O)NC(CC(C)C)C1Cc2cccc(O)c2C(=O)O1 (centres unmarked) [IIIa-1-32] | 66
CC(C)CC(NC(=O)C(O)C1OC(=O)CC1NC(=O)C1CCCCC1=O)C1Cc2cccc(O)c2C(=O)O1 (centres unmarked) [IIIa-1-33] | 66
CC(=O)Oc1ccc(C(=O)NC2CC(=O)OC2C(O)C(=O)NC(CC(C)C)C2Cc3cccc(O)c3C(=O)O2)cc1 (centres unmarked) [IIIa-1-34] | 66
CC(C)CC(NC(=O)C(O)C1OC(=O)CC1NC(=O)c1ccc(O)cc1)C1Cc2cccc(O)c2C(=O)O1 (centres unmarked) [IIIa-1-35] | 66
CCOC(=O)CCC(=O)NC1CC(=O)OC1C(O)C(=O)NC(CC(C)C)C1Cc2cccc(O)c2C(=O)O1 (centres unmarked) [IIIa-1-36] | 66
CSCC(=O)NC1CC(=O)OC1C(O)C(=O)NC(CC(C)C)C1Cc2cccc(O)c2C(=O)O1 (centres unmarked) [IIIa-1-44] | 66
CCCCCSCC(=O)NC1CC(=O)OC1C(O)C(=O)NC(CC(C)C)C1Cc2cccc(O)c2C(=O)O1 (centres unmarked) [IIIa-1-45] | 66
CSc1ccc(C(=O)NC2CC(=O)OC2C(O)C(=O)NC(CC(C)C)C2Cc3cccc(O)c3C(=O)O2)cc1 (centres unmarked) [IIIa-1-46] | 66
CCCCCSc1ccc(C(=O)NC2CC(=O)OC2C(O)C(=O)NC(CC(C)C)C2Cc3cccc(O)c3C(=O)O2)cc1 (centres unmarked) [IIIa-1-47] | 56
CC(=O)OC(C)CC(=O)NC1CC(=O)OC1C(O)C(=O)NC(CC(C)C)C1Cc2cccc(O)c2C(=O)O1 (centres unmarked) [IIIa-1-48] | 66
CCCCCC(=O)OC(C)CC(=O)NC1CC(=O)OC1C(O)C(=O)NC(CC(C)C)C1Cc2cccc(O)c2C(=O)O1 (centres unmarked) [IIIa-1-49] | 56
COC(=O)c1ccc(C(=O)NC2CC(=O)OC2C(O)C(=O)NC(CC(C)C)C2Cc3cccc(O)c3C(=O)O2)cc1 (centres unmarked) [IIIa-1-50] | 66

Structure (SMILES) | inhibition in vivo at 50 mg/kg [%]
CCCCCOC(=O)c1ccc(C(=O)NC2CC(=O)OC2C(O)C(=O)NC(CC(C)C)C2Cc3cccc(O)c3C(=O)O2)cc1 (centres unmarked) [IIIa-1-51] | 44
C#CC(=O)NC1CC(=O)OC1C(O)C(=O)NC(CC(C)C)C1Cc2cccc(O)c2C(=O)O1 (centres unmarked) [IIIa-1-52] | 66
CC(C)CCc1ccc(C(C)C(=O)NC2CC(=O)OC2C(O)C(=O)NC(CC(C)C)C2Cc3cccc(O)c3C(=O)O2)cc1 (centres unmarked) [IIIa-1-53] | 56
C/C=C/C(=O)NC1CC(=O)OC1C(O)C(=O)NC(CC(C)C)C1Cc2cccc(O)c2C(=O)O1 (centres unmarked) [IIIa-1-54] | 66
CC(C)CC(NC(=O)C(O)C1OC(=O)CC1NC(=O)C=Cc1ccoc1)C1Cc2cccc(O)c2C(=O)O1 (centres unmarked) [IIIa-1-57] | 56
CC(C)CC(NC(=O)C(O)C1OC(=O)CC1NC(=O)Cc1cccnc1)C1Cc2cccc(O)c2C(=O)O1 (centres unmarked) [IIIa-1-58] | 66
CC(C)CC(NC(=O)C(O)C1OC(=O)CC1NC(=O)C1CCC=CO1)C1Cc2cccc(O)c2C(=O)O1 (centres unmarked) [IIIa-1-59] | 66
CC(C)CC(NC(=O)C(O)C1OC(=O)CC1NC(=O)c1cocc1C(=O)O)C1Cc2cccc(O)c2C(=O)O1 (centres unmarked) [IIIa-1-60] | 66
CC(C)CC(NC(=O)C(O)C1OC(=O)CC1NC(=O)C1CCCCCCC1)C1Cc2cccc(O)c2C(=O)O1 (centres unmarked) [IIIa-1-62] | 66
CC(C)CC(NC(=O)C(O)C1OC(=O)CC1NC(=O)CCC1CCCC1)C1Cc2cccc(O)c2C(=O)O1 (centres unmarked) [IIIa-1-63] | 66
CC(C)CC(NC(=O)C(O)C1OC(=O)CC1NC(=O)Cc1ccc2ccccc2c1)C1Cc2cccc(O)c2C(=O)O1 (centres unmarked) [IIIa-1-64] | 56
Cc1ccc(CC(=O)NC2CC(=O)OC2C(O)C(=O)NC(CC(C)C)C2Cc3cccc(O)c3C(=O)O2)cc1 (centres unmarked) [IIIa-1-65] | 66
CC(C)=CCC/C(C)=C/CC/C(C)=C/CCC(=O)NC1CC(=O)OC1C(O)C(=O)NC(CC(C)C)C1Cc2cccc(O)c2C(=O)O1 (centres unmarked) [IIIa-1-67] | 66
COC(=O)C1CCC(C(=O)NC2CC(=O)OC2C(O)C(=O)NC(CC(C)C)C2Cc3cccc(O)c3C(=O)O2)CC1 (centres unmarked) [IIIa-1-68] | 66
CC(C)CC(NC(=O)C(O)C1OC(=O)CC1NC(=O)c1ccc(C(C)C)cc1)C1Cc2cccc(O)c2C(=O)O1 (centres unmarked) [IIIa-1-69] | 66
Cc1ccc(C(C)C)cc2c(C(=O)NC3CC(=O)OC3C(O)C(=O)NC(CC(C)C)C3Cc4cccc(O)c4C(=O)O3)c(C)cc1-2 (centres unmarked) [IIIa-1-70] | 56
COC1CCC(C(=O)NC2CC(=O)OC2C(O)C(=O)NC(CC(C)C)C2Cc3cccc(O)c3C(=O)O2)CC1 (centres unmarked) [IIIa-1-73] | 66
CC(=O)OC1CCC(C(=O)NC2CC(=O)OC2C(O)C(=O)NC(CC(C)C)C2Cc3cccc(O)c3C(=O)O2)CC1 (centres unmarked) [IIIa-1-74] | 66

Same assay, conditions: rat, in vivo

Structure (SMILES) | anti-ulcer activity (in words)
CC(C)CC(NC(=N)C(O)C(O)C(N)CC(=O)O)C1Cc2cccc(O)c2C(=O)O1 (centres unmarked) [AI-77-A] | high anti-ulcer activity
CC(C)CC(NC(=O)C(O)C(O)C(N)CC(=O)O)C1Cc2cccc(O)c2C(=O)O1 (centres unmarked) [AI-77-B] | high anti-ulcer activity
